Where two headings read alike, the source gives them in different places.
What was measured:
alkaline phosphatase = alkaline phosphatase (Homo sapiens, UniProt P05187); test: Conversion of mutual prodrugs to salmeterol and AISTM drug after exposure to alkaline phosphatase in vitro (LCMS); format: in vitro ADME; conditions: for Calculated Compound Final Conc. (μM) at 270 mins.: 270 mins in ALP; for half-life at 0.1 mg/mL / half-life at 111.7 μM: human, alkaline phosphatase (Sigma P-3895) in reaction buffer, read-out: Half Life t1/2; for Example 37 in ALP (Peak Area Ratio) Normalized / Example 37 in ALP (Peak Area Ratio) mean / Example 29 in ALP (Peak Area Ratio) Normalized / Example 29 in ALP (Peak Area Ratio) mean: 37 degrees; for half-life at 111.7 μM: Table 1b
Sequence of alkaline phosphatase (P05187 23-506): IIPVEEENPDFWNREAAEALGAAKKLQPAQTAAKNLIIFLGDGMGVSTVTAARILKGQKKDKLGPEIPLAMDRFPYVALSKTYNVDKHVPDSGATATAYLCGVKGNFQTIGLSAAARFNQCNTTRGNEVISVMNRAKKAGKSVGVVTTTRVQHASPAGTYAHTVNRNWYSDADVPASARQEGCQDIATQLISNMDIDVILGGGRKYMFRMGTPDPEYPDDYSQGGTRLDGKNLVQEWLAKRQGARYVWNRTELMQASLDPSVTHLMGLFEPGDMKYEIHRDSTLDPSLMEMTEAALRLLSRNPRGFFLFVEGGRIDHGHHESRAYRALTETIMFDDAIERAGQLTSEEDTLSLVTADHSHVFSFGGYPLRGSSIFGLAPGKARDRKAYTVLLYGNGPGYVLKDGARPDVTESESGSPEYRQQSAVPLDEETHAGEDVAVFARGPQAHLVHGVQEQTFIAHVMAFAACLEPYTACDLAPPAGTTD
Description: Conversion of the Mutual AISTM-β-Agonist Prodrugs (Described in Examples 29 and 37) to Salmeterol and Respective AISTM Drugs after Exposure to Alkaline Phosphatase In Vitro
Reaction Buffer (pH 7.4, 5 mM tris/1 mM Mg^2+/1 mM Zn^2+) […]
Dissolved ˜2 mg of the mutual prodrug of invention in 10 ml 1:1 acetonitrile/water.
Dissolved ˜2 mg of each MRA and β-agonist in 20 ml 1:1 acetonitrile/water
The stock solutions were mixed in microcentrifuge tubes, as depicted in the following Table:
(§1) The heat block was set at the 37 degrees. Then 0.5 mL of alkaline phosphatase solution was added into 4 preheated Eppendorf tubes. The aliquot 0.5 of prodrug and drug standards were added into preheated Eppendorf tubes. Immediately after vortexing the aliquots of 25 μL of the all reaction solutions were made into the respective 96-well plate positions. The internal standard (75 μl of 500 ng/mL Glyburide) was added into all samples after each aliquots. That procedure was repeated at every 15 minute intervals for ˜4-5 hours.
The 96-well plates were then analyzed using the LCMS technique.
(§2) In the calculation of half life, we assumed that the disappearance of the mutual prodrug of this invention followed first order kinetics. Therefore,
(§3) The area peak ratio of prodrug vs IS was plotted against time first; the peak area ratios of later time points were normalized with the peak area ratio of initial time point (ASAP). The natural log of the normalized ratio was then plotted against time to generate a linear curve. The slope of this linear curve k was used for the following calculation.
Drug concentrations are calculated by normalizing the peak area ration to (t 0). Thus, calculated drug concentrations at any time point=normalized peak area ratio [t (0) mean/t mean]multiplied initial drug concentration. Data (normalized peak area ratio) for the calculations of drug concentrations are listed in Table 1a (ALP activation) and 1b (half-life in ALP and buffer only) for the compound prepared in Example 29, salmeterol, and the ARRY-797 compound (Munson et al., 2004) and Table 2a (ALP activation) and 2b (half-life in ALP and buffer only)) for the compound prepared in Example 37, salmeterol, and the PDE4 inhibitor, CDP-840 (Alexander et al., 2002).

[1] = Half life of mutual prodrug in reaction buffer only (pH 7.4 tris/Mg2+/Zn2+); format: physicochemical; conditions: reaction buffer without alkaline phosphatase, reaction buffer pH 7.4, no ALP
Description: Reaction Buffer (pH 7.4, 5 mM tris/1 mM Mg^2+/1 mM Zn^2+)
as §1, §2, §3
Drug concentrations are calculated by normalizing the peak area ration to (t 0). Thus, calculated drug concentrations at any time point=normalized peak area ratio [t (0) mean/t mean]multiplied initial drug concentration. […]

COc1ccc([C@H](Cc2cc[n+](Cc3ccc(C(O)CNCCCCCCOCCCCc4ccccc4)cc3OP(=O)(O)O)cc2)c2ccccc2)cc1OC1CCCC1 (stereo in doubt) [Example 37, 4-[2-(3-Cyclopentyloxy-4-methoxy-phenyl)-2-phenyl-ethyl]-1-(4-{1-hydroxy-2-[6-(4-phenyl-butoxy)-hexylamino]-ethyl}-2-phosphonooxy-benzyl)-pyridinium]
Half Life t1/2 (alkaline phosphatase; ALP Enzyme Conc. 0.224 mg/mL, Table 2b, first order kinetics assumed): 0.925 h | Calculated Compound Final Conc. (μM) at 270 mins. (alkaline phosphatase; added initial conc. 117.4 μM in reaction mixture): 1.9 µM | half-life at 0.1 mg/mL (alkaline phosphatase; pH 7.4, ALP Enzyme Conc. 0.224 mg/mL, Table 2b, first order kinetics assumed): 0.775 h | half-life at 0.1 mg/mL (alkaline phosphatase; pH 7.4, ALP Enzyme Conc. 0.443 mg/mL, Table 2b, first order kinetics assumed): 0.41 h | Example 37 in ALP (Peak Area Ratio) Normalized (alkaline phosphatase; time 0 mins): 1.0000 | Example 37 in ALP (Peak Area Ratio) mean (alkaline phosphatase; time 0 mins): 0.8115 | Example 37 in ALP (Peak Area Ratio) Normalized (alkaline phosphatase; time 15.0 mins): 0.5126 | Example 37 in ALP (Peak Area Ratio) mean (alkaline phosphatase; time 15.0 mins): 0.4160 | Example 37 in ALP (Peak Area Ratio) Normalized (alkaline phosphatase; time 30.0 mins): 0.2705 | Example 37 in ALP (Peak Area Ratio) mean (alkaline phosphatase; time 30.0 mins): 0.2195 | Example 37 in ALP (Peak Area Ratio) Normalized (alkaline phosphatase; time 45.0 mins): 0.1719 | Example 37 in ALP (Peak Area Ratio) mean (alkaline phosphatase; time 45.0 mins): 0.1395 | Example 37 in ALP (Peak Area Ratio) Normalized (alkaline phosphatase; time 60.0 mins): 0.1280 | Example 37 in ALP (Peak Area Ratio) mean (alkaline phosphatase; time 60.0 mins): 0.1039 | Example 37 in ALP (Peak Area Ratio) Normalized (alkaline phosphatase; time 75.0 mins): 0.0974 | Example 37 in ALP (Peak Area Ratio) mean (alkaline phosphatase; time 75.0 mins): 0.0791 | Example 37 in ALP (Peak Area Ratio) Normalized (alkaline phosphatase; time 90.0 mins): 0.0752 | Example 37 in ALP (Peak Area Ratio) mean (alkaline phosphatase; time 90.0 mins): 0.0610 | Example 37 in ALP (Peak Area Ratio) Normalized (alkaline phosphatase; time 105 mins): 0.0630 | Example 37 in ALP (Peak Area Ratio) mean (alkaline phosphatase; time 105 mins): 0.0511 | Example 37 in ALP (Peak Area Ratio) Normalized (alkaline phosphatase; time 120 mins): 0.0478 | Example 37 in ALP (Peak Area Ratio) mean (alkaline phosphatase; time 120 mins): 0.0388 | Example 37 in ALP (Peak Area Ratio) Normalized (alkaline phosphatase; time 135 mins): 0.0439 | Example 37 in ALP (Peak Area Ratio) mean (alkaline phosphatase; time 135 mins): 0.0357 | Example 37 in ALP (Peak Area Ratio) Normalized (alkaline phosphatase; time 150 mins): 0.0322 | Example 37 in ALP (Peak Area Ratio) mean (alkaline phosphatase; time 150 mins): 0.0262 | Example 37 in ALP (Peak Area Ratio) Normalized (alkaline phosphatase; time 165 mins): 0.0296 | Example 37 in ALP (Peak Area Ratio) mean (alkaline phosphatase; time 165 mins): 0.0240 | Example 37 in ALP (Peak Area Ratio) Normalized (alkaline phosphatase; time 180 mins): 0.0275 | Example 37 in ALP (Peak Area Ratio) mean (alkaline phosphatase; time 180 mins): 0.0224 | Example 37 in ALP (Peak Area Ratio) Normalized (alkaline phosphatase; time 210 mins): 0.0227 | Example 37 in ALP (Peak Area Ratio) mean (alkaline phosphatase; time 210 mins): 0.0184 | Example 37 in ALP (Peak Area Ratio) Normalized (alkaline phosphatase; time 240 mins): 0.0198 | Example 37 in ALP (Peak Area Ratio) mean (alkaline phosphatase; time 240 mins): 0.0161 | Example 37 in ALP (Peak Area Ratio) Normalized (alkaline phosphatase; time 270 mins): 0.0161 | Example 37 in ALP (Peak Area Ratio) mean (alkaline phosphatase; time 270 mins): 0.0131 | half-life ([1]; Table 2b): 6.42 h

CC(C)Cn1ncc2cc(Oc3ccc(F)cc3F)c(C(=O)NCC[N+](C)(C)Cc3cc(C(O)CNCCCCCCOCCCCc4ccccc4)ccc3OP(=O)(O)O)cc21 (stereo not shown) [Example 29, (2-{[5-(2,4-Difluoro-phenoxy)-1-isobutyl-1H-indazole-6-carbonyl]-amino}-ethyl)-(5-{-hydroxy-2-[6-(4-phenyl-butoxy)-hexylamino]-ethyl}-2-phosphonooxy-benzyl)-dimethyl-ammonium]
Calculated Compound Final Conc. (μM) at 270 mins. (alkaline phosphatase; added initial conc. 111.7 μM in reaction mixture): 57.5 µM | half-life at 111.7 μM (alkaline phosphatase; pH 7.4, ALP Enzyme Conc. 0.224 mg/mL, first order kinetics assumed): 5.78 h | half-life at 111.7 μM (alkaline phosphatase; pH 7.4, ALP Enzyme Conc. 0.443 mg/mL, first order kinetics assumed): 2.36 h | Example 29 in ALP (Peak Area Ratio) Normalized (alkaline phosphatase; time 0 mins): 1.0000 | Example 29 in ALP (Peak Area Ratio) mean (alkaline phosphatase; time 0 mins): 2.3900 | Example 29 in ALP (Peak Area Ratio) Normalized (alkaline phosphatase; time 15.0 mins): 0.9289 | Example 29 in ALP (Peak Area Ratio) mean (alkaline phosphatase; time 15.0 mins): 2.2200 | Example 29 in ALP (Peak Area Ratio) Normalized (alkaline phosphatase; time 30.0 mins): 0.9247 | Example 29 in ALP (Peak Area Ratio) mean (alkaline phosphatase; time 30.0 mins): 2.2100 | Example 29 in ALP (Peak Area Ratio) Normalized (alkaline phosphatase; time 45.0 mins): 0.8368 | Example 29 in ALP (Peak Area Ratio) mean (alkaline phosphatase; time 45.0 mins): 2.0000 | Example 29 in ALP (Peak Area Ratio) Normalized (alkaline phosphatase; time 60.0 mins): 0.7552 | Example 29 in ALP (Peak Area Ratio) mean (alkaline phosphatase; time 60.0 mins): 1.8050 | Example 29 in ALP (Peak Area Ratio) Normalized (alkaline phosphatase; time 75.0 mins): 0.7050 | Example 29 in ALP (Peak Area Ratio) mean (alkaline phosphatase; time 75.0 mins): 1.6850 | Example 29 in ALP (Peak Area Ratio) Normalized (alkaline phosphatase; time 90.0 mins): 0.6402 | Example 29 in ALP (Peak Area Ratio) mean (alkaline phosphatase; time 90.0 mins): 1.5300 | Example 29 in ALP (Peak Area Ratio) Normalized (alkaline phosphatase; time 105 mins): 0.6109 | Example 29 in ALP (Peak Area Ratio) mean (alkaline phosphatase; time 105 mins): 1.4600 | Example 29 in ALP (Peak Area Ratio) Normalized (alkaline phosphatase; time 120 mins): 0.6402 | Example 29 in ALP (Peak Area Ratio) mean (alkaline phosphatase; time 120 mins): 1.5300 | Example 29 in ALP (Peak Area Ratio) Normalized (alkaline phosphatase; time 135 mins): 0.6192 | Example 29 in ALP (Peak Area Ratio) mean (alkaline phosphatase; time 135 mins): 1.4800 | Example 29 in ALP (Peak Area Ratio) Normalized (alkaline phosphatase; time 150 mins): 0.5941 | Example 29 in ALP (Peak Area Ratio) mean (alkaline phosphatase; time 150 mins): 1.4200 | Example 29 in ALP (Peak Area Ratio) Normalized (alkaline phosphatase; time 165 mins): 0.5879 | Example 29 in ALP (Peak Area Ratio) mean (alkaline phosphatase; time 165 mins): 1.4050 | Example 29 in ALP (Peak Area Ratio) Normalized (alkaline phosphatase; time 180 mins): 0.5439 | Example 29 in ALP (Peak Area Ratio) mean (alkaline phosphatase; time 180 mins): 1.3000 | Example 29 in ALP (Peak Area Ratio) Normalized (alkaline phosphatase; time 210 mins): 0.5146 | Example 29 in ALP (Peak Area Ratio) mean (alkaline phosphatase; time 210 mins): 1.2300 | Example 29 in ALP (Peak Area Ratio) Normalized (alkaline phosphatase; time 240 mins): 0.4916 | Example 29 in ALP (Peak Area Ratio) mean (alkaline phosphatase; time 240 mins): 1.1750 | Example 29 in ALP (Peak Area Ratio) Normalized (alkaline phosphatase; time 270 mins): 0.5146 | Example 29 in ALP (Peak Area Ratio) mean (alkaline phosphatase; time 270 mins): 1.2300 | half-life ([1]; Table 1b): 57.8 h

— patent US20100098641A1, “Monophosphates as Mutual Prodrugs of Anti-Inflammatory Signal Transduction Modulators (AISTM's) and Beta-Agonists for the Treatment of Pulmonary Inflammation and Bronchoconstriction” (priority 2006, published 2010)
